# Source: paper PMC12388300, “The Chelating Abilities of Tertiary Amines with N-O-Donors Towards Cu(II) Ions and the Catalytic Properties of the Resulting Complexes” (Molecules, 2025)
# Like-named read-outs stand apart in the source and are kept apart here. Marks after values point to notes of the source that are not given here. Where no end group is shown, it is not given here.
# Experiments:
# [1] = cited from earlier work; for IC50: CytC assay, read-out: IC50 (SOD activity)
# [2] = Potentiometric titration: stability constants and speciation of in situ-formed Cu(II) complexes; type: physicochemical; settings: for logβi of [Cu(HLx)H]^3+ / logβi of [Cu(HLx)]^2+ / logβi of [Cu(Lx)(OH)2]^− / logβi of [Cu(Lx)(OH)] / logβi of [Cu(Lx)]^+: overall stability constant, in situ-formed complex, I = 0.1 M, 25 °C; for pH of maximum concentration of [Cu(HLx)H]^3+: speciation curves, ligand/copper(II) 1:1; for pKi of [Cu(Lx)(OH)2]^− / pKi of [Cu(Lx)(OH)] / pKi of [Cu(Lx)]^+ / pKi of [Cu(HLx)]^2+: stepwise stability constant; for pKi of [Cu(HLx)]^2+: [Cu(HLx)H]^3+ ⇄ [Cu(HLx)]^2+ + H^+
# Experimental: Based on the potentiometric studies, the overall and stepwise stability constants of formed complexes were obtained and collected in Table 2; the speciation curves of in situ-formed complexes are presented in Figure 2.
# (§1) Potentiometric measurements were performed using a Metrohm pH-meter system equipped with a semi-micro combination electrode, at 25 °C. The system was calibrated based on hydrogen ion concentration using HCl. Ligands were prepared in a 5% (v/v) DMSO solution with water containing HCl/KCl with a constant ionic strength of I = 0.1 M to achieve a final concentration of 1 mM and 0.6 mM of HL1 and HL5, respectively. Titrations were conducted by incrementally adding 0.1 M KOH using a microsyringe at 25°C, spanning a pH interval from 2.5 to 11.5, under an argon atmosphere. The stability constants and complex stoichiometries were determined from the titration data using the SUPERQUAD and HYPERQUAD programs.
# [3] = Potentiometric titration: protonation constants of the ligands; type: physicochemical; settings: I = 0.1 M, 25 °C; for logβi, Lx^− + 2H^+ ⇌ [(HLx)H]^+ / logβi, Lx^− + 3H^+ ⇌ [(HLx)H2]^2+ / logβi, Lx^− + 4H^+ ⇌ [(HLx)H3]^3+ / logβi, Lx^− + H^+ ⇌ HLx: overall protonation constant, 5% v/v DMSO/H2O, HCl/KCl; for logKi, Lx^− + H^+ ⇌ HLx: stepwise protonation constant (phenolic group); for logKi, HLx + H^+ ⇌ [(HLx)H]^+ / logKi, [(HLx)H2]^2+ + H^+ ⇌ [(HLx)H3]^3+ / logKi, [(HLx)H]^+ + H^+ ⇌ [(HLx)H2]^2+: stepwise protonation constant
# Experimental: Initially, potentiometric measurements were performed to investigate the binding abilities of the ligands in an aqueous environment at different pH levels and to construct the corresponding speciation curves (Figure 1). The analyses were performed in HCl/KCl mixtures, with KCl used to maintain a constant ionic strength of 0.1 mol·dm^−3. The first step of the potentiometric studies was the assessment of the acid-base properties of both ligands. The overall and stepwise protonation constants are collected in Table 1.
# as §1
# [4] = [Catalyst] = 100 μM, [H2O2] = 30 mM, MOPS buffer (50 mM, pH 7.5); cited from earlier work
# [5] = UV–Vis monitoring of complex stability during H2O2 dismutation; type: physicochemical; settings: during H2O2 dismutation, BBS 50 mM pH 7.8
# Description: The reaction progression was monitored by UV–Vis to gather insights into the stability of the complexes during H2O2 dismutation (Figures S45–S48 in Supplementary Materials). Analyzing the spectra recorded for the systems derived from HL1 and HL5, it is possible to observe changes in the absorption bands. In the case of the mononuclear species containing HL1, the alteration in the absorption band takes place over a comparatively extended period, in agreement with the occurrence of the delay period previously noted. The intensity associated with the π→π * electronic transition progressively diminishes, coinciding with a rise in molecular oxygen generation. Such a trend implies structural reconfiguration within the coordination environment of the complex, which appears necessary to initiate the catalytic event. On the other hand, the characteristic absorption feature vanishes after 4 h as a result of the formation of radical species. The UV–Vis profile of the complex Cu(HL5)(ClO4)2 (Figure S46) undergoes a faster modification.
# Figure S46: UV-Vis spectra of Cu(HL5)(ClO4)2 at time 0 (red) and after 7 h (light red). The colours variation represents an increment of 5 min from t=0 to t=15 min, of 15 min from t=15 to t= 45 min and 45 min from t= 45 to t=360 min.
# Conditions: [Cu(HL5)(ClO4)2]= 200 uM, [H2O2]=10mM in BBS 50mM pH=7.8. Zoom: temporal trends compared to O2 (red) and Abs (light red) on the maximum absorption at 294 nm.
# Figure S47: UV-Vis spectra of Cu2(L1)2(ClO4)2 at time 0 (blue) and after 24 hours (light blue). Every change of colors represents a temporal increase of 90 minutes. Conditions: [Cu2(L1)2(ClO4)2] = 200 µM, [H2O2] = 10 mM in BBS 50 mM, pH = 7.8. Zoom: temporal trends compared to O2 (blue) and Abs (light blue) on the maximum absorption at 288 nm.
# Figure S48: UV-Vis spectra of Cu2(L5)2(ClO4)2 at time 0 (dark green) and after 24 hours (light green). Every change of colours represents a temporal increase of 90 minutes. Conditions: [Cu2(L5)2(ClO4)2] = 200 µM, [H2O2] = 10 mM in BBS 50 mM, pH = 7.8. […]
# [6] = SOD activity, indirect cytochrome C (CytC) assay, xanthine/xanthine oxidase; type: biochemical; settings: [CytC] = 10 μM, pH = 7.8
# Experimental: To reduce uncertainty about the actual active species involved in the reaction, the catalytic investigations were made with the isolated species. The ability to catalyze superoxide dismutation was assessed using the indirect cytochrome C-based assay originally introduced by McCord and Fridovich. In this kind of test, the presence of a catalyst with SOD activity, acting as a scavenger for O2^•− and generated via a xanthine/xanthine oxidase system, prevents the electron transfer to cytochrome C (Cyt C) to form […].
# (§2) Catalytic measurement assays were conducted using a Varian Cary 100 spectrophotometer with a 3 mL quartz cuvette (1 cm path length) for evaluating SOD-like activity. For the assessment of peroxidase-mimicking activity, a Varian Cary 50 instrument and identical cuvettes were utilized. To monitor the CAT-like activity, a 25 mL vial, equipped with a septum for solution injection, was used as a reactor and connected to a pressure transducer.
# [7] = Cyclic voltammetry of the Cu(II)/Cu(I) couple; type: physicochemical
# Experimental: To assess this behavior, the corresponding redox potentials were measured by cyclic voltammetry (CV), offering key insights into the electron-transfer properties of the complexes. The metal ion redox potential should ideally lie between the potential for oxidation (−0.16 V vs. NHE) (Equation (1)) and reduction (0.89 V vs. NHE) of superoxide radicals (Equation (2)).(1) O2∙−→O2+e^− (2) O2∙−+e^−+H^+→H2O2
# The key electrochemical parameters extracted from the cyclic voltammograms are summarized in Table 3, highlighting a similar redox behavior of the complexes with both ligands. However, the nature of the anion appears to influence the properties of the mononuclear species formed in situ, compared with the isolated complexes.
# Cyclic voltammetry experiments were carried out using a BAS Cell C3 EC-epsilon potentiostat equipped with a conventional three-electrode system consisting of a glassy carbon working electrode (3 mm diameter, geometric surface 7 mm^2), a platinum wire counter electrode (CE), and a silver/silver chloride reference electrode (Ag/AgCl, 3 M KCl). Voltammograms were recorded in phosphate-buffered saline (PBS; 10 mM, 150 mM NaCl, pH 7.8) containing 0.25 mM of the complex. The measurements were performed within a potential window from −600 mV to +400 mV, employing various scan rates (50 mV/s, 100 mV/s, 200 mV/s, 400 mV/s, and 800 mV/s).
# [8] = CAT-like activity: O2 pressure from hydrogen peroxide dismutation; type: biochemical; parameters: Rmax: unit not given here; settings: [catalyst] = 200 μM, [H2O2] = 20–30 mM in BBS 50 mM, pH = 7.8
# Experimental: The studied catalase-like activity of the complexes was evaluated by measuring the pressure resulting from the oxygen produced during the dismutation of the hydrogen peroxide. For this analysis, a borate-based buffer system (BBS 50 mM, pH 7.8) was utilized to avoid the competitive binding of phosphate anions.
# as §2, with “transducer. […]” for “transducer.”
# To monitor the CAT-like activity, a 25 mL vial was used as a reactor, connected to a pressure transducer and
# a septum for the injection.
# [9] = vs NHE, PBS 10 mM, 150 mM NaCl, pH 7.8, 0.25 mM complex
Compound,IC50 [1] [µM],Log (kcat) [1],logβi of [Cu(HLx)H]^3+ [2],logβi of [Cu(HLx)]^2+ [2],logβi of [Cu(Lx)(OH)2]^− [2],logβi of [Cu(Lx)(OH)] [2],logβi of [Cu(Lx)]^+ [2],pH of maximum concentration of [Cu(HLx)H]^3+ [2],pKi of [Cu(Lx)(OH)2]^− [2],pKi of [Cu(Lx)(OH)] [2],pKi of [Cu(Lx)]^+ [2],pKi of [Cu(HLx)]^2+ [2],"logβi, Lx^− + 2H^+ ⇌ [(HLx)H]^+ [3]","logβi, Lx^− + 3H^+ ⇌ [(HLx)H2]^2+ [3]","logβi, Lx^− + 4H^+ ⇌ [(HLx)H3]^3+ [3]","logβi, Lx^− + H^+ ⇌ HLx [3]","logKi, Lx^− + H^+ ⇌ HLx [3]","logKi, HLx + H^+ ⇌ [(HLx)H]^+ [3]","logKi, [(HLx)H2]^2+ + H^+ ⇌ [(HLx)H3]^3+ [3]","logKi, [(HLx)H]^+ + H^+ ⇌ [(HLx)H2]^2+ [3]",also measured
O=C([O-])CCN(Cc1ccccn1)Cc1ccccn1.[Cu+2] [[Cu(BPMPA)]^+],1.04,7.09,,,,,,,,,,,,,,,,,,,
"Oc1ccccc1CN(Cc1ccccn1)Cc1ccccn1 [HL1, N-(2-hydroxylbenzyl)-N,N-bis(2-pyridylmethyl)amine]",,,22.67 ± 0.06,16.84 ± 0.08,−10.42 ± 0.09,0.03 ± 0.09,9.73 ± 0.08,4.5,10.45,9.70,7.11,5.83,16.29 ± 0.02,21.53 ± 0.02,25.24 ± 0.02,9.99 ± 0.01,9.99,6.30,3.71,5.24,"metal ion binding efficiency in the competition diagram ([2]; HL1:Cu(II):HL5 molar ratio 1:1:1, pH 3 to 11): significantly less efficient in metal ion binding"
"COc1cccc(CN(Cc2ccccn2)Cc2ccccn2)c1O [HL5, 2-{[Bis(pyridin-2-ylmethyl)amino]methyl}-6-methoxyphenol]",,,23.43 ± 0.08,18.04 ± 0.10,−8.56 ± 0.11,1.77 ± 0.11,11.51 ± 0.10,3.5,10.33,9.74,6.53,5.39,15.77 ± 0.02,20.71 ± 0.02,24.43 ± 0.02,9.52 ± 0.01,9.52,6.25,3.72,4.94,
(CATm1)Cu2: di-copper complex of CATm1 = peptide sequence PHYKHRLH (also: di-copper complex),,,,,,,,,,,,,,,,,,,,,O2 generated [4]: 0.3 mmol/L; Rmax [4]: 273 µM/min; Time [4]: 3 min
O=S(=O)([O-])[O-].[Cu+2] [CuSO4],72.2,~6,,,,,,,,,,,,,,,,,,,
Oc1ccccc1CN(Cc1ccccn1)Cc1ccccn1.[Cu+2].[O-][Cl+3]([O-])([O-])[O-].[O-][Cl+3]([O-])([O-])[O-] [Cu(HL1)(ClO4)2],,,,,,,,,,,,,,,,,,,,,"time after which the characteristic absorption feature vanishes [5]: 4 h; IC50 ([6]; CytC assay, [xanthine] = 40 μM, [xanthine oxidase] = 0.0053 U/mL, phosphate buffer 50 mM): 1.41 µM; Log (kcat) ([6]; kcat(O2•−)=kCytC·[CytC]/IC50, kCytC=2.6×10^5 M^−1s^−1): 6.27 ^h; ΔE ([7]; Epc − Epa, PBS pH 7.8): −0.085 V; │ia/ic│ ([7]; peak current ratio, PBS pH 7.8): 0.61; E1/2 ([7]; vs NHE, E1/2=(Epc+Epa)/2, PBS pH 7.8): −0.135 V; Epa [7, 9]: −0.092 V; Epc [7, 9]: −0.177 V; Time (to maximum O2 production) [8]: 950 min; Induction Time ([8]; triplicate, ±10% error): 250 min; O2 generated ([8]; triplicate, ±10% error): 7.6 mmol/L; Rmax ([8]; triplicate, ±10% error): 0.25"
